Counter-ions that a name gives are not always drawn. Like-named read-outs stand apart in the source and are kept apart here.
Tests used:
[1] = Storage stability of midodrine in compounds (60° C., 20 days; discoloration and remaining midodrine by HPLC); assay type: physicochemical; settings: 3 parts midodrine + 100 parts compound, sealed; for STORAGE STABILITY OF MIDODRINE: RATIO OF REMAINING MIDODRINE (% BY WEIGHT): HPLC
Procedure: Then the color of the mixture after storage was visually observed. When the color was found unchanged compared with that before the storage, the mixture was evaluated as “excellent.” When discoloration was found, the mixture was evaluated as “bad.”
The weight W5 (g) of non-decomposed midodrine remaining in the mixture after storage was quantified by HPLC, and the ratio (% by weight) of remaining midodrine to the amount W6 (g) of midodrine added was computed using the following formula (1).
Ratio(% by weight)of remaining midodrine=100×(W5/W6) (1)

[2] = Solubility of midodrine at 25° C. in monomers / compounds (saturated solution, HPLC)
Procedure: One hundred parts by weight of a monomer shown in TABLE 1 and 3 parts by weight of midodrine were sufficiently mixed to prepare a midodrine solution, and the dissolved state of midodrine in the midodrine solution was visually observed. The midodrine solution was stored at a temperature of 25° C. for 7 days, and then the dissolved state of midodrine was again visually observed. The dissolvability of midodrine was evaluated according to the following criteria.
A midodrine solution composed of 50 parts by weight of midodrine and 950 parts by weight of a compound shown in TABLE 2 and used as a solvent was prepared. Then the midodrine solution was maintained at 50° C. for 15 minutes and subjected to ultrasonic shaking in a water bath at 25° C. for 10 minutes. The resultant midodrine solution was transferred to a centrifuge tube and left to stand at 25° C. for 2 hours. Then the midodrine solution was centrifuged at a rotation speed of 3,000 rpm using a centrifuge, and the presence or absence of crystals of midodrine on the bottom of the centrifuge tube was observed. When no crystals of midodrine were deposited, the same procedure was repeated with the midodrine-to-compound weight ratio increased up to 200:800 to thereby prepare a saturated midodrine solution.
A certain amount of the supernatant of the saturated midodrine solution after centrifugation was collected, and the collected supernatant was subjected to HPLC measurement to quantify the weight W7 (g) of midodrine dissolved in the saturated midodrine solution.
(W8: weight (g) of compound used as solvent in saturated midodrine solution)

[3] = Dissolvability of midodrine in monomers (visual observation); assay type: physicochemical; settings: 3 parts by weight midodrine in 100 parts by weight of the monomer; observed immediately and after 7 days at 25° C.
Excerpt: High: No deposition of midodrine was found in any of the midodrine solution immediately after preparation and the midodrine solution after storage for 7 days.
Middle: Deposition of midodrine was found in the solution immediately after preparation, but no deposition of midodrine was found in the midodrine solution after storage for 7 days.
Low: Deposition of midodrine was found in the midodrine solution immediately after preparation and also in the midodrine solution after storage for 7 days.

CC(C)CCCC(C)CCCC(C)CCCCC(C)CCCC(C)CCCC(C)C (centres unmarked)
STORAGE STABILITY OF MIDODRINE: DISCOLORATION TEST ([1]; colour observed visually): EXCELLENT

C=CN1CCCC1=O [1-VINYL-2-PYRROLIDONE]
SOLUBILITY OF MIDODRINE [2]: >3.0 g
DISSOLVABILITY OF MIDODRINE [3]: HIGH

C=C(C)C(=O)OCC(CC)CCCC (centres unmarked) [2-ETHYLHEXYL METHACRYLATE]
DISSOLVABILITY OF MIDODRINE [3]: LOW

C=CC(=O)O [ACRYLIC ACID]
DISSOLVABILITY OF MIDODRINE [3]: HIGH

C=C(C)C(=O)OCCCC [BUTYL METHACRYLATE]
SOLUBILITY OF MIDODRINE ([2]; in the monomer as solvent, 25° C., grams of midodrine per 100 g of solvent): 0.10 g
DISSOLVABILITY OF MIDODRINE [3]: LOW

OCCCCO [BUTYLENE GLYCOL]
SOLUBILITY OF MIDODRINE [2]: 7.72 g
STORAGE STABILITY OF MIDODRINE: DIS[…] ([1]; colour observed visually): EXCELLENT

C=C(C)C(=O)OCCCCCCCCCCCC [DODECYL METHACRYLATE]
SOLUBILITY OF MIDODRINE [2]: 0.02 g
DISSOLVABILITY OF MIDODRINE [3]: LOW

C=CC(=O)OCC [ETHYL ACRYLATE]
SOLUBILITY OF MIDODRINE [2]: 0.25 g
DISSOLVABILITY OF MIDODRINE [3]: LOW

CCCCCCCCCCCC(=O)OCCCCCC [HEXYL LAURATE]
SOLUBILITY OF MIDODRINE [2]: 0.02 g
STORAGE STABILITY OF MIDODRINE: DISCOLORATION TEST ([1]; colour observed visually): EXCELLENT

CCCCCCCCC(CO)CCCCCC (centres unmarked) [HEXYLDECANOL]
Value in parentheses after the liquid solubilizing aid (solubility of midodrine in the compound) [2]: HEXYLDECANOL (0.26)
STORAGE STABILITY OF MIDODRINE: RATIO OF REMAINING MIDODRINE (% BY WEIGHT) [1]: 90.4 % BY WEIGHT
STORAGE STABILITY OF MIDODRINE: DISCOLORATION TEST ([1]; colour observed visually): EXCELLENT

CCCCCCCCCCCCCC(=O)OC(C)C [ISOPROPYL MYRISTATE]
Value in parentheses after the liquid solubilizing aid (solubility of midodrine in the compound) [2]: ISOPROPYL MYRISTATE (0.02)
STORAGE STABILITY OF MIDODRINE: DISCOLORATION TEST ([1]; colour observed visually): EXCELLENT

CCCCCCCCCCCCCCCC(=O)OC(C)C [ISOPROPYL PALMITATE]
Value in parentheses after the liquid solubilizing aid (solubility of midodrine in the compound) [2]: ISOPROPYL PALMITATE (0.02)
STORAGE STABILITY OF MIDODRINE: DISCOLORATION TEST ([1]; colour observed visually): EXCELLENT

CC(C)CCCCCCCCCCCCCCC(=O)O [ISOSTEARIC ACID]
STORAGE STABILITY OF MIDODRINE: DISCOLORATION TEST ([1]; colour observed visually): BAD

CC(C)CCCCCCCCCCCCCCCO [ISOSTEARYL ALCOHOL]
STORAGE STABILITY OF MIDODRINE: DISCOLORATION TEST ([1]; colour observed visually): EXCELLENT

CCCCCCCCCCCCO [LAURYL ALCOHOL]
STORAGE STABILITY OF MIDODRINE: DISCOLORATION TEST ([1]; colour observed visually): BAD

NCCO [MONOETHANOLAMINE]
STORAGE STABILITY OF MIDODRINE: DISCOLORATION TEST ([1]; colour observed visually): BAD

CCCCCCC(O)CO (centres unmarked) [OCTANEDIOL]
SOLUBILITY OF MIDODRINE [2]: 1.78 g
STORAGE STABILITY OF MIDODRINE: RATIO OF REMAINING MIDODRINE (% BY WEIGHT) [1]: 48.0 % BY WEIGHT
STORAGE STABILITY OF MIDODRINE: DISCOLORATION TEST ([1]; colour observed visually): BAD

CCCCCCCCCCC(CO)CCCCCCCC (centres unmarked) [OCTYLDODECANOL]
STORAGE STABILITY OF MIDODRINE: RATIO OF REMAINING MIDODRINE (% BY WEIGHT) [1]: 100.0 % BY WEIGHT
STORAGE STABILITY OF MIDODRINE: DISCOLORATION TEST ([1]; colour observed visually): EXCELLENT

CCCCCCCC/C=C\CCCCCCCCO [OLEYL ALCOHOL]
SOLUBILITY OF MIDODRINE [2]: 0.40 g
STORAGE STABILITY OF MIDODRINE: DISCOLORATION TEST ([1]; colour observed visually): BAD

CC(O)CO (centres unmarked) [PROPYLENE GLYCOL]
SOLUBILITY OF MIDODRINE [2]: 15.67 g
STORAGE STABILITY OF MIDODRINE: DISCOLORATION TEST ([1]; colour observed visually): EXCELLENT

CC(=O)OCC(COC(C)=O)OC(C)=O [TRIACETIN]
SOLUBILITY OF MIDODRINE [2]: 0.70 g
STORAGE STABILITY OF MIDODRINE: DISCOLORATION TEST ([1]; colour observed visually): EXCELLENT

CCOC(=O)CC(O)(CC(=O)OCC)C(=O)OCC [TRIETHYL CITRATE]
STORAGE STABILITY OF MIDODRINE: DISCOLORATION TEST ([1]; colour observed visually): EXCELLENT

Reference: US20130287823A1, “PATCH” (priority 2010, published 2013)
